# Reference: patent publication US8101581B2, “Use of D-ribose to treat cardiac arrhythmias” (Bioenergy, Inc., priority 2007, dated 2012)
# “Also recorded” adds a separate entry of the source. Like-named read-outs stand apart in the source and are kept apart here.
# Columns and labels:
# [1] = cited from earlier work
# atrial fibrillation = test: D-ribose administered to patients with a diagnosis of atrial fibrillation; format: in vivo, human
# Method: Eight patients with a diagnosis of atrial fibrillation were administered D-ribose. It can be seen from the above data that not all patients are completely and immediately relieved of atrial fibrillation. […] Therefore, it is recommended that patients ingest 10 to 15 grams of D-ribose daily.
smiles,measurement,setting,value
O=C[C@H](O)[C@H](O)[C@H](O)CO [D-ribose],Digestive symptoms,"[1]; dose of five grams, most people",without experiencing these digestive symptoms
same,Digestive symptoms,"[1]; doses over about eight grams, many people",flatulence and diarrhea
same,Relief?,"atrial fibrillation; Patient 1, duration of AT Recent, daily amount N/R, other medication CoQ","complete, immediate"
same,Relief?,"atrial fibrillation; Patient 2, duration, daily amount and other medications N/R","complete, immediate"
same,Relief?,"atrial fibrillation; Patient 3, 5 grams D-ribose daily",only partial relief; also recorded: “helped”
same,Relief?,"atrial fibrillation; Patient 4, 5 grams D-ribose daily","delayed relief; also recorded: complete, within two"
same,Relief?,"atrial fibrillation; Patient 5, duration 20 years, 10 grams D-ribose daily, CoQ, L-carnitine, Mg",complete and immediate relief
same,Relief?,"atrial fibrillation; Patient 6, 10-15 grams D-ribose daily",complete and immediate relief; also recorded: “practically
same,Relief?,"atrial fibrillation; Patient 7, 5 grams D-ribose daily","complete, immediate"
same,Side effects,atrial fibrillation; administration of low doses of D-ribose,no side effects
same,Persistence of relief of atrial fibrillation,atrial fibrillation; patients on continued D-ribose,more than a year
